#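 Grown in 96-well plates, cells were treated for 48 hours with each compound at five concentrations. Insufficient inhibition: endpoint recorded as highest concentration tested. GI50 is the concentration that inhibits growth by half.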 Activity calls are given as the source filed them. No stated cut-off is given here; in the data, active = GI50 up to about 1.1 µM and inactive = higher.
# Tests used:
# Assay in all cases: NCI anticancer screen, dose series, 48 h
# [1] = test system: HT-29
# [2] = test system: A549
# [3] = test system: T47D
# [4] = test system: SW-620
# [5] = test system: SK-MEL-28
# [6] = test system: KM12
# [7] = test system: SNB-75
# [8] = test system: SR
# [9] = test system: SF-268
# [10] = test system: HCT-15
# [11] = test system: UO-31
# [12] = test system: OVCAR-5
# [13] = test system: NCI-H522
# [14] = test system: SF-295
# [15] = test system: IGROV-1
# [16] = test system: HOP-92
# [17] = test system: HCC 2998
# [18] = test system: EKVX
# [19] = test system: HL-60
# [20] = test system: LOX IMVI
SMILES,GI50 [1],GI50 [2],GI50 [3],GI50 [4],GI50 [5],GI50 [6],GI50 [7],GI50 [8],GI50 [9],GI50 [10] [µM],GI50 [11],GI50 [12],GI50 [13],GI50 [14],GI50 [15],GI50 [16],GI50 [17],GI50 [18],GI50 [19],GI50 [20]
CCOC(=O)C(NC(=O)CC)(Nc1ccc(F)c(Cl)c1)C(F)(F)F (stereo not given),> 100 µM (inactive),> 100 µM (inactive),> 100 µM (inactive),> 100 µM (inactive),> 100 µM (inactive),35.8 µM (inactive),> 100 µM (inactive),> 45.6 µM (inactive),> 100 µM (inactive),> 83.4,> 100 µM (inactive),> 100 µM (inactive),> 100 µM (inactive),> 76.4 µM (inactive),> 100 µM (inactive),> 100 µM (inactive),> 100 µM (inactive),> 100 µM (inactive),> 36.2 µM (inactive),
Nc1c(F)c(F)c2c(c1F)N(CCCCCl)c1ccccc1S2,> 100 µM (inactive),> 100 µM (inactive),> 100 µM (inactive),> 100 µM (inactive),> 100 µM (inactive),> 100 µM (inactive),74.6 µM (inactive),> 100 µM (inactive),> 100 µM (inactive),> 100,> 100 µM (inactive),> 100 µM (inactive),> 100 µM (inactive),> 100 µM (inactive),> 100 µM (inactive),> 100 µM (inactive),> 100 µM (inactive),,> 100 µM (inactive),> 100 µM (inactive)
Cn1cc(NC(=O)Nc2cc(C(=O)Nc3cc(C(=O)Nc4ccc(S(=O)(=O)O)c5cc(S(=O)(=O)O)ccc45)n(C)c3)n(C)c2)cc1C(=O)Nc1cc(C(=O)Nc2ccc(S(=O)(=O)O)c3cc(S(=O)(=O)O)ccc23)n(C)c1,> 100 µM (inactive),85.7 µM (inactive),> 100 µM (inactive),> 100 µM (inactive),> 100 µM (inactive),> 100 µM (inactive),> 100 µM (inactive),> 100 µM (inactive),> 100 µM (inactive),> 100,> 100 µM (inactive),> 100 µM (inactive),> 100 µM (inactive),> 100 µM (inactive),> 100 µM (inactive),51.9 µM (inactive),> 100 µM (inactive),34 µM (inactive),> 100 µM (inactive),
O=C1CSC(=S)N1 [RHODANINE],,> 100 µM (inactive),> 100 µM (inactive),> 100 µM (inactive),> 100 µM (inactive),> 100 µM (inactive),> 100 µM (inactive),> 100 µM (inactive),> 100 µM (inactive),> 100,> 100 µM (inactive),> 100 µM (inactive),> 100 µM (inactive),> 100 µM (inactive),> 100 µM (inactive),> 100 µM (inactive),> 100 µM (inactive),> 100 µM (inactive),> 100 µM (inactive),> 100 µM (inactive)
Cc1cn([C@H]2C=C[C@@H](CO)O2)c(=O)[nH]c1=O [STAVUDINE],> 1000 µM (inactive),> 1000 µM (inactive),473 µM (inactive),418 µM (inactive),,> 1000 µM (inactive),796 µM (inactive),780 µM (inactive),> 1000 µM (inactive),> 1000,490 µM (inactive),> 1000 µM (inactive),350 µM (inactive),> 1000 µM (inactive),> 1000 µM (inactive),679 µM (inactive),> 1000 µM (inactive),> 1000 µM (inactive),348 µM (inactive),> 1000 µM (inactive)

# — ChEMBL document CHEMBL1201862, “PubChem BioAssay data set” (2004)
